These results are taken from patent US11028127B2, “Peptides capable of reactivating p53 mutants” (Yeda Research and Development Co. Ltd., priority 2013, dated 2021).

The assay deals with T1, Mut-p53 (R175H p53) (Homo sapiens, UniProt P04637, R175H).
T1 construct: a hot spot full length mutant p53 Mut-p53 R175H (R175H p53); expressed in transfected cells; host or cells: H1299 (p53-null) cells stably overexpressing R175H p53; cell extract
The assay can be described thus: Sandwich ELISA for p53 conformation (PAb1620/PAb240 reactivity). Type of assay: biochemical. The procedure:
To measure the conformational effect of the peptides on Mut-p53, a micro-titer plate was coated with either PAb240, PAb1620 or pAb421 (as a positive control and standard for total p53 protein, since the antibody used recognizes both WT and mutant conformations), overnight incubated, washed, blocked, and cell extracts (with or without peptides) were added for an additional 2 hours. After removal of extracts, plates were washed and incubated with the αp53-HRP conjugated Ab for the detection of p53 levels. A TMB (substrate of HRP) assay was performed and optical density was determined at 450 nm. WT p53 served as a positive control for reactivity with PAb1620, and Mut-p53 served as a negative control. The results are presented as the ratio of absorbance between the PAb1620 or PAb240 samples and the control […] sample. MCF7 and H1299-Mut-p53 (ts) A135V (TS) cells were used as positive controls for the WT p53 conformation (1620/240 ratio equals or exceeds 5:1).
96-well plates were coated using 3 different antibodies (1 type of antibody (Ab) in each well): PAb421 recognizes both conformations of p53 and binds to a C-terminus epitope; PAb240 recognizes mutant conformation of p53, binds to epitope within the core domain (amino acids 212-217) (Stephen, C. W. and D. P. Lane, Mutant conformation of p53. Precise epitope mapping using a filamentous phage epitope library. J. Mol. Biol., 1992. 225(3): p. 577-83) which is accessible to the Ab when the protein is partially denatured (for example, when the DBD is mutated); and PAb1620, which recognizes WT conformation of p53, binds to epitope with in the core domain (aa 156, 206-210), formed when folding is in WT conformation (Wang, P. L., F. Salt, and G. Winter, The ‘wild type’ conformation of p53: epitope mapping using hybrid proteins. Oncogene, 2001. 20(18): p. 2318-24).
Wells were incubated overnight (ON) with 100 μl Ab (5 μg/ml) in room temp (RT). The liquid was discarded, and the wells were washed 3 times with Phosphate buffered saline (PBS), 200 μl per each wash. Next, blocking with 200 μl of 5% bovine serum albumin (BSA) diluted in PBS in each well for 1.5 hours at room temperature (RT) was performed. Blocking buffer was discarded, followed by 3 washes in PBS as described above. Samples of mutant and WT p53 proteins (100 μl, 10 μg/ml), together with control peptides pCAP-710 (LPNPPER, SEQ ID NO:328) and pCAP-1220 ([…], SEQ ID NO:368) (5 μg/ml, Sigma Aldrich, or with test peptides 1-153 (5 μg/ml), were incubated for 1.5 hours together, and then added to the wells. Samples were rotated and incubated for 1 hour at RT. Samples were discarded, following 4 washes as described above, using Trisphosphate buffered saline (TPBS). Next, horseradish peroxidase (HRP) conjugated streptavidin p53 antibody (10 μg/ml HAF1355 (R&D)) was added to the wells and incubated at RT for 1 hour. After the plate was washed 3 times in TPBS, TMB substrate solution (50 μl each well, Thermo, (Cat. No. ES001-1L-K)) was added and incubated at 37° c. for 20 min. The reaction was stopped with 2M sulfuric acid (50 μl). The absorbance was measured at 450 nm with a spectrophotometer. Protein concentration was determined by dividing the absorbencies of each sample to the absorbance of Ab 421 samples.
The first screening strategy was based on ELISA. A version of sandwich ELISA was used to examine the effect of the lead test peptides on p53 conformation. To measure the conformational effect of the peptides on Mut-p53, a micro-titer plate was coated with PAb240, PAb1620 or pAb421 (as a positive control), and then the reactivity of p53 to these antibodies was examined. WT p53 served as a positive control for reactivity with PAb1620, and Mut-p53 served as a negative control. To examine the effect of a tested peptide it was added to a solution containing Mut-p53 and change in reactivity to either Ab was tested. […] Several ELISA experiments using different cell extracts were performed. […]

In the case of YRRLLIGMMWRRRRRRRRRRR [pCAP-68], the “effect on Mut-p53 conformation (conformational change)” value is “significant shift in Mut-p53 conformation towards PAb1620”. Besides, the “reactivity of R175H Mut-p53 towards PAb1620 and PAb240 (conformational change)” value (extract of H1299 cells overexpressing R175H p53, peptide 50 ng/ml, 2 hours) was “increased reactivity of R175H Mut-p53 towards PAb1620 and decreased reactivity towards PAb240”.
